# Source: US11253517B2, “Small molecule regulators of steroid receptor coactivators and methods of use thereof” (BAYLOR COLLEGE OF MEDICINE, priority 2016, dated 2022)
# Experiments:
# Assay type in all cases: cell-based
# [1] = molecular target: T1, SRC-3 (Homo sapiens, UniProt Q9Y6Q9); assay: SRC-3 intrinsic transcriptional activity luciferase assay in HeLa cells; settings: pG5-LUC reporter with pBIND-SRC-3, 24 hours
# T1 construct: expressed in transfected cells; host or cells: HeLa
# Experimental: Luciferase assays were performed in HeLa cells transiently transfected with the reporter vector pG5-LUC in combination with expression vectors for pBIND and pBIND-SRC-3 before incubation with the compound for 24 hours. In FIG. 1, the first histogram bar in each set represents pBIND; the second histogram bar in each set represents SRC-1; the third histogram bar in each set represents SRC-2; and the fourth histogram bar in each set represents SRC-3.
# Intrinsic transcriptional activity assays were conducted as for FIG. 1. In FIG. 2, the left histogram bar in each set represents pBIND and the right histogram bar in each set represents pBIND-SRC3.
# The effects of the SI compounds described herein on the intrinsic transcriptional activities of SRC-1, SRC-2 and SRC-3 were investigated. HeLa cells were transiently transfected with a pGL5-LUC reporter and expression vectors for pBIND and pBIND-SRC-1, pBIND-SRC-2, pBIND-SRC-3, followed by 24 hours of treatment with different concentrations of SI compounds. Compounds as described herein, including SI-9, SI-10, SI-11, SI-12, SI-14, SI-15, SI-16, SI-17, SI-19, SI-20, and SI-21, were tested for their ability to inhibit the intrinsic transcriptional activity of SRC-1, SRC-2 and SRC-3 in FIG. 1.
# [2] = tested on: MDA-MB-468 cells; assay: IC50 in MDA-MB-468 cells, 72 hours incubation; settings: Homo sapiens
# Experimental: (§1) The compounds described herein were synthesized as described in Example 1. The IC50 values were measured in MDA-MB-468, BT-474, and MCF-7 cells by incubating a series of concentrations of the corresponding compounds for 72 hours.
# (§2) In Tables 1 and 2, “−” represents IC50 or EC50 values greater than 10 μM; “+” represents IC50 or EC50 values from greater than 1 μM to 10 μM; “++” represents IC50 or EC50 values from 0.1 μM to 1 μM; and “+++” represents IC50 or EC50 values less than 0.1 μM.
# [3] = tested on: BT-474 cells; assay: IC50 in BT-474 cells, 72 hours incubation; settings: Homo sapiens
# Experimental: as §1, §2
# [4] = tested on: MCF-7 cells; assay: IC50 in MCF-7 cells, 72 hours incubation; settings: Homo sapiens, MCF7
# Experimental: as §1, §2
# [5] = tested on: MDA-MB-468 cells; assay: EC50 in MDA-MB-468 cells, 72 hours incubation; settings: Homo sapiens
# Experimental: The EC50 values of certain compounds were measured in MDA-MB-468 cells by incubating a series of concentrations of the corresponding compounds for 72 hours.
# as §2
# T1 sequence (Q9Y6Q9 whole entry): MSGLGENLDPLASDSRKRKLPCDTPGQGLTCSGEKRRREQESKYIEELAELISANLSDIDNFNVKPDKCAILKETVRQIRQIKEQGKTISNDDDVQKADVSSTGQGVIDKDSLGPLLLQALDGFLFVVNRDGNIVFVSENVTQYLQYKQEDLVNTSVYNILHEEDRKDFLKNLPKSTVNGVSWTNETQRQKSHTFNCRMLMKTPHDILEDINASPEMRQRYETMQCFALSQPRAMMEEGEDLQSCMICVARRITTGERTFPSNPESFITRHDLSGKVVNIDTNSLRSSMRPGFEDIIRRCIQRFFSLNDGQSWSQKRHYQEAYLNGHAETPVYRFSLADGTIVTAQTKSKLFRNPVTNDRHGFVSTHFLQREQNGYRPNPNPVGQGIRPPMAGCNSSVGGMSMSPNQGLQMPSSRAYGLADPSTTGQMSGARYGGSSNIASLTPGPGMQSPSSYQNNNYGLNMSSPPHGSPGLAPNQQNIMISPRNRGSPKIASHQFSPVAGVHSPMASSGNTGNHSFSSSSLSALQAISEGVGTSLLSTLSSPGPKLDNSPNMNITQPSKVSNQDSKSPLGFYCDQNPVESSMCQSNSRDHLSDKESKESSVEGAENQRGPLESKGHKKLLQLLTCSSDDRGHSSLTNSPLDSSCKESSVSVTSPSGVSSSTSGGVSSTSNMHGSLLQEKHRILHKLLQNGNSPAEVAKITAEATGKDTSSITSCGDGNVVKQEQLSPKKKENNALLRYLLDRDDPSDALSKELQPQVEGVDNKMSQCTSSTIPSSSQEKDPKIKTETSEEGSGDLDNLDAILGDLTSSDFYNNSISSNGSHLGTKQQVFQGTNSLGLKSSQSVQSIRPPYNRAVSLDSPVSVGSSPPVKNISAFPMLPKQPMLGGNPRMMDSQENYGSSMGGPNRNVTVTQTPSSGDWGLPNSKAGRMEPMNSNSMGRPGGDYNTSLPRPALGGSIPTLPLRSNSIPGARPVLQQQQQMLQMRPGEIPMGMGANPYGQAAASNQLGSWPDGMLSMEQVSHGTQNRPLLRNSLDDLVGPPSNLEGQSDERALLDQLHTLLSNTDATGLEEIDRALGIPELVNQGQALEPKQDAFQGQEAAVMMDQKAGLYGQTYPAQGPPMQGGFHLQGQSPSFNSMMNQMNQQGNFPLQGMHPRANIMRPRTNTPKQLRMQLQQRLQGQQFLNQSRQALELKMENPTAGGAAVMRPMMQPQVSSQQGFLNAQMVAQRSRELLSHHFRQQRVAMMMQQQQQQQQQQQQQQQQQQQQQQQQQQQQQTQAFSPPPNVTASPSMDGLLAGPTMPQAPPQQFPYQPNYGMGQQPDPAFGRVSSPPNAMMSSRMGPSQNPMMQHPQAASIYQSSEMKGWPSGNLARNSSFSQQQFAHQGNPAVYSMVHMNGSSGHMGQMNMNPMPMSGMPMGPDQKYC
SMILES,effect on SRC-3 intrinsic activity [1],IC50 [3],IC50 [4],further results
C/C(=N\Nc1nc2ccccc2n1C)c1ccc[nH]1 [SI-3],able to stimulate SRC-3 intrinsic activity at certain doses,–,–,–
C/C(=N\Nc1nc2ccccc2n1C)c1nccn1C [SI-4],able to stimulate SRC-3 intrinsic activity at certain doses,–,–,–
C/C(=N\Nc1nc2ccccc2n1C)c1ncco1 [SI-5],able to stimulate SRC-3 intrinsic activity at certain doses,–,–,–
C/C(=N\Nc1nc2ccccc2n1C)c1nccs1 [SI-6],able to stimulate SRC-3 intrinsic activity at certain doses,–,–,IC50 [2]: 100 to 1000 nM
C/C(=N\Nc1nc2ccccc2n1C)c1ccco1 [SI-7],able to stimulate SRC-3 intrinsic activity at certain doses,–,–,–
C/C(=N\Nc1nc2ccccc2n1C)c1cccs1 [SI-8],able to stimulate SRC-3 intrinsic activity at certain doses,–,–,–
C/C(=N\Nc1nc2cc(F)c(F)cc2n1C)c1ccccn1 [SI-9],–,< 100 nM,–,–
C/C(=N\Nc1nc2cc(F)c(F)cc2n1C)c1ncccn1 [SI-10],–,< 100 nM,< 100 nM,–
C/C(=N\Nc1nc2cc(F)c(F)cc2n1C)c1ccncn1 [SI-11],–,< 100 nM,< 100 nM,–
C/C(=N\Nc1nc2cc(F)ccc2n1C)c1ccccn1 [SI-14],–,< 100 nM,< 100 nM,–
C/C(=N\Nc1nc2cc(F)ccc2n1C)c1ncccn1 [SI-15],–,< 100 nM,< 100 nM,–
C/C(=N\Nc1nc2cc(F)ccc2n1C)c1ccncn1 [SI-16],–,< 100 nM,< 100 nM,–
C/C(=N\Nc1nc2cc(F)ccc2n1C)c1ccc(F)cn1 [SI-17],–,< 100 nM,< 100 nM,–
C/C(=N\Nc1nc2ccccc2n1C)c1ncccn1 [SI-19],–,< 100 nM,< 100 nM,–
C/C(=N\Nc1nc2ccccc2n1C)c1ccncn1 [SI-20],–,< 100 nM,< 100 nM,–
C/C(=N\Nc1nc2ccccc2n1C)c1ccc(F)cn1 [SI-21],–,< 100 nM,< 100 nM,–
Cn1c(NNC(=O)c2ccccn2)nc2ccccc21 [SI-C-01],–,–,–,EC50 [5]: 100 to 1000 nM
C/C(=N\Nc1nc2ccccc2n1C)c1ncccc1Br [SI-E-01P],–,–,–,EC50 [5]: 100 to 1000 nM
